Assay results: ChEMBL document CHEMBL1144518, “1-Methylpyridinium-4-(4-phenylmethanethiosulfonate) iodide, MTS-MPP+, a novel scanning cysteine accessibility method (SCAM) reagent for monoamine transporter studies” (Bioorg Med Chem, 2007)
The source made the active and inactive calls. The calls are words filed in the database; no cut-off is given here.

Key:
[1] = tested on: Sodium-dependent serotonin transporter (Homo sapiens), P31645 [C109A]; experiment: Blockade of leak current of human SERT C109A mutant expressed in Xenopus laevis oocytes assessed as outward current at 30 uM; type: cell-based; conditions: Oocyte
[2] = molecular target: Sodium-dependent serotonin transporter (Homo sapiens, UniProt P31645, C109A); experiment: Inhibition of [3H]5-HT uptake at human SERT C109A mutant transfected in HEK cells; type: cell-based, HEK293
[3] = molecular target: Sodium-dependent serotonin transporter (Homo sapiens, UniProt P31645, G498C); experiment: Decrease in [3H]5-HT uptake at human SERT G498C mutant transfected in HEK293 cells; type: cell-based
[4] = tested on: Sodium-dependent serotonin transporter (Homo sapiens), P31645 [C109A]; experiment: Activation of inward current at human SERT C109A mutant expressed in Xenopus laevis oocytes; type: cell-based; conditions: Oocyte

Compound | Activity [1] | Ki [2] | EC50 [3] | Activity [4]
C[n+]1ccc(-c2ccc(SS(C)(=O)=O)cc2)cc1 | Active | 1300 µM | 3.98 µM | inactive
C[n+]1ccc(-c2ccccc2)cc1 |  | 48 µM |  | 
C[N+](C)(C)CCSS(C)(=O)=O |  |  | 3.16 µM | 
